Legend:
[1] = system: excised bronchi of guinea pigs by the action of leukotriene D4; assay: Inhibitory activity on leukotrienes (contraction induced by leukotriene D4 in excised guinea pig bronchi); conditions: Conc. 10^-5 M, treatment before 10 minutes
Protocol: The compounds were evaluated for inhibitory activity on leukotrienes in the following test.
In this test, contraction was induced in excised bronchi of guinea pigs by the action of leukotriene D4, and inhibitory action of the present compounds after treatment before 10 minutes was measured and recorded via a transducer.

PGF2α = assay: Inhibition of contraction of excised bronchi of guinea pigs by PGF2α; conditions: 10^-5 M
[2] = system: contraction of excised bronchi of guinea pigs by histamine; assay: Inhibition of contraction of excised bronchi of guinea pigs by histamine; conditions: 10^-5 M
SRS-A = assay: Inhibitory activity on biosynthesis and release of chemical mediator (SRS-A), bioassay using excised ileum; parameters: species or system guinea pigs; conditions: Conc. 10^-5 M
Protocol: The compounds were evaluated for inhibitory activity on biosynthesis and release of a chemical mediator according to the method described by S. Watanabe-Kohno et al [J. Immunol., 125, 946 (1980)] and J. Augastein et al [Nature, 245, 215 (1973)]. In this test, SRS-A was used as a chemical mediator.
The chemical mediator contained in the reaction solution was determined according to bioassay using excised ileum of guinea pigs.
Percent Inhibition (%)=(1-A'/A)×100
A'=contraction level by the reaction solution treated with test compound
A=contraction level by the control reaction solution

rats = assay: Toxicity to rats by oral administration; assay type: in vivo; conditions: 1000 mg/kg by oral administration

Structure (SMILES)	Percent Inhibition (inhibitory activity on leukotrienes) [1]	inhibitory activity on contraction by PGF2α (PGF2α)	inhibitory activity on contraction by histamine [2]	Percent Inhibition (biosynthesis and release of chemical mediator) (SRS-A)	mortality (rats)
COc1ccc(C=CC(CCCC(=O)O)=C2SC(=S)NC2=O)cc1OC (single isomer, unassigned) [Isomer B of Example 19, 7-(3,4-dimethoxyphenyl)-5-(4-oxo-2-thioxo-5-thiazolidinilydene)-6-heptenoic acid]	85.1%	–	–	–	–
CCOC(=O)CCC(C=Cc1ccc(OC)c(OC)c1)=C1SC(=S)NC1=O [Compound of Example 14, Ethyl 6-(3,4-dimethoxyphenyl)-4-(4-oxo-2-thioxo-5-thiazolidinylidene)-5-hexenoate]	98.1%	60-90%	60-90%	–	–
CC(C=Cc1cccs1)=C1SC(=S)NC1=O (single isomer, unassigned) [Isomer B of Example 15, 5-[3-(2-Thienyl)-1-methyl-2-propenylidene]-4-oxo-2-thioxothiazolidine]	–	60-90%	60-90%	–	–
CCCC(C=Cc1ccc(C(=O)O)cc1)=C1SC(=S)NC1=O (single isomer, unassigned) [Isomer A of Example 17, 4-[3-(4-Oxo-2-thioxo-5-thiazolidinylidene)-1-hexen-1-yl]benzoic acid]	84.7%	–	–	–	–
CCOC(=O)CCCC(C=Cc1ccc(OC)c(OC)c1)=C1SC(=S)NC1=O [Ethyl ester compound of Example 19, ethyl 7(3,4-dimethoxyphenyl)-5-(4-oxo-2-thioxo-5-thiazolidinilydene)-6-heptenoate]	90.5%	–	–	–	–
COc1ccc(C=CC(C)=C2SC(=S)NC2=O)cc1OC (single isomer, unassigned) [Isomer B of Example 1]	82.4%	60-90%	60-90%	58.0%	–
COc1ccc(CCC(C)=C2SC(=S)NC2=O)cc1OC (single isomer, unassigned) [Isomer B of Example 12, 5-[3-(3,4-Dimethoxyphenyl)-1-methylpropylidene]-4-oxo-2-thioxothiazolidine]	97.9%	60-90%	60-90%	70.6%	no mortality was observed
COc1ccc(CCC(C)=C2SC(=S)NC2=O)cc1OC (single isomer, unassigned) [Isomer A of Example 12, 5-[3-(3,4-Dimethoxyphenyl)-1-methylpropylidene]-4-oxo-2-thioxothiazolidine]	100.0%	60-90%	60-90%	76.2%	no mortality was observed
CCCC(C=Cc1ccc(C(=O)O)cc1)=C1SC(=S)NC1=O (single isomer, unassigned) [Isomer B of Example 17, 4-[3-(4-Oxo-2-thioxo-5-thiazolidinylidene)-1-hexen-1-yl]benzoic acid]	79.8%	–	–	–	–
